According to US11739101B2, “Bifunctional degraders of hematopoietic progenitor kinase and therapeutic uses thereof” (Nurix Therapeutics, Inc., priority 2020, dated 2023):

These molecules were tested against T1, HPK1 (Homo sapiens, UniProt Q92918) (assay: HPK1 Cellular HiBiT Degradation Assay). Conditions: HiBiT-tagged HPK1 Jurkat cells, 24 hours, 10 uM to 0.1 nM; Dmax = 100 minus lowest % HPK1 remaining vs DMSO vehicle.
T1 construct: A HiBiT tag was introduced by CRISPR on the N terminus of HPK1 in Jurkat cells; host or cells: Jurkat (ATCC TIB-152), monoclonal CRISPR HiBiT knock-in line
T1 sequence (Q92918 whole entry): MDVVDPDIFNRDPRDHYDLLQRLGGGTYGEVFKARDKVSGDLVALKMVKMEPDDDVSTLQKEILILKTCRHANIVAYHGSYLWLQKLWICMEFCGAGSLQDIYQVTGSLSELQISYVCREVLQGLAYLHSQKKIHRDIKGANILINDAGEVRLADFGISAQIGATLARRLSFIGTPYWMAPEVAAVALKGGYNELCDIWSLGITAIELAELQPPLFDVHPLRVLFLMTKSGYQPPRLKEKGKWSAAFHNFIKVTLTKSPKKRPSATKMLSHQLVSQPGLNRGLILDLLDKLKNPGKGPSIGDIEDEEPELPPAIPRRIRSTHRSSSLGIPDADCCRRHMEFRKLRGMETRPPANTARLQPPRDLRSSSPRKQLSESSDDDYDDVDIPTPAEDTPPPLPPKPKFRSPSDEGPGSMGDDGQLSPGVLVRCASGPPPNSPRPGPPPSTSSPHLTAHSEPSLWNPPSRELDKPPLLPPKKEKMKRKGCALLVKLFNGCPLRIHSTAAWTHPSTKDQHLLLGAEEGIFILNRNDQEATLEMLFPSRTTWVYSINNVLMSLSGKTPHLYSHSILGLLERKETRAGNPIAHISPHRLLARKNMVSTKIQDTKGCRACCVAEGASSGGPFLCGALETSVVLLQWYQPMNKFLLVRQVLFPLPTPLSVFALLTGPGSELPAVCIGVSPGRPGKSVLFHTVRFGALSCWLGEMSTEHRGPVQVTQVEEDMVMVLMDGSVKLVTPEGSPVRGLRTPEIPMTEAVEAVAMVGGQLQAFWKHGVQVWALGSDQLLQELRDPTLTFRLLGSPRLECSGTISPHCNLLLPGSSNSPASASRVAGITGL
Format: cell-based
Description: HiBiT HPK1 Jurkat cell lines were used to evaluate the total protein levels of HPK1 in a robust human cellular high throughput format. The level of HPK1 remaining following treatment with HPK1 CTMs is reported as Dmax (maximum degradation) achieved at 24 hours when compared to vehicle treated controls. […] These decreases were not a result of cytotoxicity measured by a parallel viability assessment (CTG). See also Table 1.
A HiBiT tag was introduced by CRISPR on the N terminus of HPK1 in Jurkat cells (ATCC® TIB-152) to allow quantitation of HPK1 protein levels in a monoclonal human cell line. Cells were plated at 1×10^6 cells/mL, 30 uL/well (3×10^4 cells/well) in complete RPMI 1640 (10% heat inactivated FBS, 1% L-glutamine) in 384-well assay plates (Corning, cat. no. 3570). HPK1 chimeric targeting molecules (CTMs) were added in an 11-point dilution series (3.16-fold) with a final assay concentration range of 10 uM to 0.1 nM. The parental Jurkat cell line, with no HiBiT insertion, was included in the assay as a background control. Cells treated with a DMSO vehicle control were used to determine the maximum signal defining 100% HPK1 in the cell. Cells were incubated for 24 hours at 37° C./5% CO2. Following incubation, 30 uL of complete Nano-Glo HiBiT Lytic Detection Reagent (Promega cat. no. N3040) was added. Cells were incubated for 10 minutes at room temperature and luminescence was read on an EnVision plate reader (Perkin Elmer, 0.1 sec per well). Parallel plates were assessed for viability using Cell Titer Glo (Promega) and read on an EnVision plate reader to ensure results were not the effect of cytotoxicity. Percent HPK1 remaining per sample was calculated as follows: […]
% HPK1 remaining values were plotted as a function of compound concentration and curves were fit using the Prism (GraphPad) equation “log(inhibitor) vs response−Variable slope (four parameters)”. Dmax values were calculated by identifying the lowest % remaining and subtracting from 100. Dmax values are provided in Table 1, wherein A>65%, 45%≤B≤65% and C<45%.

| Dmax [%] | Compound |
| --- | --- |
| < 45 | CC(=O)N1CCC2(CC1)C(=O)N([C@H]1C[C@@H](N3CCC[C@@H](C(=O)NCCCCCCCCCNc4ccc5c(c4)C(=O)N(C4CCC(=O)NC4=O)C5=O)C3)C1)c1cc(-c3cc4ncn(C(C)C)c4c(Nc4cc(C(=O)NC(C)C)c(C)cc4F)n3)ccc12 (stereo partly drawn) [Example 15, (3R)-1-((1s,3s)-3-(1′-acetyl-6-(4-((2-fluoro-5-(isopropylcarbamoyl)-4-methylphenyl)amino)-3-isopropyl-3H-imidazo[4,5-c]pyridin-6-yl)-2-oxospiro[indoline-3,4′-piperidin]-1-yl)cyclobutyl)-N-(9-((2-(2,6-dioxopiperidin-3-yl)-1,3-dioxoisoindolin-5-yl)amino)nonyl)piperidine-3-carboxamide] |
| < 45 | Cc1cc(F)c(Nc2nc(-c3ccc4c(c3)N([C@H]3C[C@@H](N5CCCCC5)C3)C(=O)C43CCN(C(=O)CN4CCC(CCCCC(=O)N[C@H](C(=O)N5C[C@H](O)C[C@H]5C(=O)N[C@@H](C)c5ccc(-c6scnc6C)cc5)C(C)(C)C)CC4)CC3)cc3ncn(C(C)C)c23)cc1C(=O)NC(C)C [Example 19, (2S,4R)-1-((S)-2-(5-(1-(2-(6-(4-((2-fluoro-5-(isopropylcarbamoyl)-4-methylphenyl)amino)-3-isopropyl-3H-imidazo[4,5-c]pyridin-6-yl)-2-oxo-1-((1s,3s)-3-(piperidin-1-yl)cyclobutyl)spiro[indoline-3,4′-piperidin]-1′-yl)-2-oxoethyl)piperidin-4-yl)pentanamido)-3,3-dimethylbutanoyl)-4-hydroxy-N—((S)-1-(4-(4-methylthiazol-5-yl)phenyl)ethyl)pyrrolidine-2-carboxamide] |
| < 45 | Cc1cc(F)c(Nc2nc(-c3ccc4c(c3)N([C@H]3C[C@@H](N5CCCCC5)C3)C(=O)C43CCN(C(=O)CCN4CCC(CCCCC(=O)N[C@H](C(=O)N5C[C@H](O)C[C@H]5C(=O)N[C@@H](C)c5ccc(-c6scnc6C)cc5)C(C)(C)C)CC4)CC3)cc3ncn(C(C)C)c23)cc1C(=O)NC(C)C [Example 20, (2S,4R)-1-((S)-2-(5-(1-(3-(6-(4-((2-fluoro-5-(isopropylcarbamoyl)-4-methylphenyl)amino)-3-isopropyl-3H-imidazo[4,5-c]pyridin-6-yl)-2-oxo-1-((1s,3s)-3-(piperidin-1-yl)cyclobutyl)spiro[indoline-3,4′-piperidin]-1′-yl)-3-oxopropyl)piperidin-4-yl)pentanamido)-3,3-dimethylbutanoyl)-4-hydroxy-N—((S)-1-(4-(4-methylthiazol-5-yl)phenyl)ethyl)pyrrolidine-2-carboxamide] |
| < 45 | Cc1cc(F)c(Nc2nc(-c3ccc4c(c3)N([C@H]3C[C@@H](N5CCCCC5)C3)C(=O)C43CCN(C(=O)CN4CCC5(CC4)CN(c4ccc6c(c4)C(=O)N(C4CCC(=O)NC4=O)C6=O)C5)CC3)cc3ncn(C(C)C)c23)cc1C(=O)NC(C)C (stereo partly shown) [Example 22, 5-[(6-{1′-[2-(2-{2-[2,6-dioxopiperidin-3-yl]-1,3-dioxo-2,3-dihydro-1H-isoindol-5-yl}-2,7-diazaspiro[3.5]nonan-7-yl)acetyl]-2-oxo-1-[(1s,3s)-3-(piperidin-1-yl)cyclobutyl]-1,2-dihydrospiro[indole-3,4′-piperidin]-6-yl}-3-(propan-2-yl)-3H-imidazo[4,5-c]pyridine-4-yl)amino]-4-fluoro-2-methyl-N-(propan-2-yl)benzamide] |
| 45 to 65 | Cc1cc(F)c(Nc2nc(-c3ccc4c(c3)N([C@H]3C[C@@H](N5CCCCC5)C3)C(=O)C43CCN(C(=O)C4CCN(C(=O)C5CCC(Nc6cccc7c6C(=O)N(C6CCC(=O)NC6=O)C7=O)CC5)C4)CC3)cc3ncn(C(C)C)c23)cc1C(=O)NC(C)C (stereo partly drawn) [Example 26, 4-fluoro-2-methyl-5-[(6-{2-oxo-1′-[1-[(1R,4R)-4-({2-[2,6-dioxopiperidin-3-yl]-1,3-dioxo-2,3-dihydro-1H-isoindol-4-yl}amino)cyclohexanecarbonyl]pyrrolidine-3-carbonyl]-1-[(1s,3s)-3-(piperidin-1-yl)cyclobutyl]-1,2-dihydrospiro[indole-3,4′-piperidin]-6-yl}-3-(propan-2-yl)-3H-imidazo[4,5-c]pyridin-4-yl)amino]-N-(propan-2-yl)benzamide] |

More lines, now with the values behind:

| Compound | Dmax [%] |
| --- | --- |
| CC(=O)N1CCC2(CC1)C(=O)N([C@H]1C[C@@H](N3CCC[C@@H](C(=O)NCCCCCCCOc4cc(-c5scnc5C)ccc4CNC(=O)[C@@H]4C[C@@H](O)CN4C(=O)[C@@H](NC(=O)C4(F)CC4)C(C)(C)C)C3)C1)c1cc(-c3cc4ncn(C(C)C)c4c(Nc4cc(C(=O)NC(C)C)c(C)cc4F)n3)ccc12 [Example 16, (R)-1-((1s,3s)-3-(1′-acetyl-6-(4-((2-fluoro-5-(isopropylcarbamoyl)-4-methylphenyl)amino)-3-isopropyl-3H-imidazo[4,5-c]pyridin-6-yl)-2-oxospiro[indoline-3,4′-piperidin]-1-yl)cyclobutyl)-N-(7-(2-(((2S,4R)-1-((S)-2-(1-fluorocyclopropane-1-carboxamido)-3,3-dimethylbutanoyl)-4-hydroxypyrrolidine-2-carboxamido)methyl)-5-(4-methylthiazol-5-yl)phenoxy)heptyl)piperidine-3-carboxamide] | < 45 |
| CC(=O)N1CCC2(CC1)C(=O)N([C@H]1C[C@@H](N3CCC[C@@H](C(=O)NCCCCCCCCCOc4cc(-c5scnc5C)ccc4CNC(=O)[C@@H]4C[C@@H](O)CN4C(=O)[C@@H](NC(=O)C4(F)CC4)C(C)(C)C)C3)C1)c1cc(-c3cc4ncn(C(C)C)c4c(Nc4cc(C(=O)NC(C)C)c(C)cc4F)n3)ccc12 [Example 17, (R)-1-((1s,3s)-3-(1′-acetyl-6-(4-((2-fluoro-5-(isopropylcarbamoyl)-4-methylphenyl)amino)-3-isopropyl-3H-imidazo[4,5-c]pyridin-6-yl)-2-oxospiro[indoline-3,4′-piperidin]-1-yl)cyclobutyl)-N-(9-(2-(((2S,4R)-1-((S)-2-(1-fluorocyclopropane-1-carboxamido)-3,3-dimethylbutanoyl)-4-hydroxypyrrolidine-2-carboxamido)methyl)-5-(4-methylthiazol-5-yl)phenoxy)nonyl)piperidine-3-carboxamide] | < 45 |
| Cc1cc(F)c(Nc2nc(-c3ccc4c(c3)N([C@H]3C[C@@H](N5CCCCC5)C3)C(=O)C43CCN(C(=O)CN4CCN(CC(=O)N[C@H](C(=O)N5C[C@H](O)C[C@H]5C(=O)N[C@@H](C)c5ccc(-c6scnc6C)cc5)C(C)(C)C)CC4)CC3)cc3ncn(C(C)C)c23)cc1C(=O)NC(C)C [Example 18, (2S,4R)-1-((S)-2-(2-(4-(2-(6-(4-((2-fluoro-5-(isopropylcarbamoyl)-4-methylphenyl)amino)-3-isopropyl-3H-imidazo[4,5-c]pyridin-6-yl)-2-oxo-1-((1s,3s)-3-(piperidin-1-yl)cyclobutyl)spiro[indoline-3,4′-piperidin]-1′-yl)-2-oxoethyl)piperazin-1-yl)acetamido)-3,3-dimethylbutanoyl)-4-hydroxy-N—((S)-1-(4-(4-methylthiazol-5-yl)phenyl)ethyl)pyrrolidine-2-carboxamide] | 45 to 65 |
| Cc1cc(F)c(Nc2nc(-c3ccc4c(c3)N([C@H]3C[C@@H](N5CCCCC5)C3)C(=O)C43CCN(C(=O)CN4CCN(CCCc5cccc6c5C(=O)N(C5CCC(=O)NC5=O)C6=O)CC4)CC3)cc3ncn(C(C)C)c23)cc1C(=O)NC(C)C (stereo partly shown) [Example 21, 5-{[6-(1′-{2-[4-(3-{2-[2,6-dioxopiperidin-3-yl]-1,3-dioxo-2,3-dihydro-1H-isoindol-4-yl}propyl)piperazin-1-yl]acetyl}-2-oxo-1-[(1s,3s)-3-(piperidin-1-yl)cyclobutyl]-1,2-dihydrospiro[indole-3,4′-piperidin]-6-yl)-3-(propan-2-yl)-3H-imidazo[4,5-c]pyridin-4-yl]amino}-4-fluoro-2-methyl-N-(propan-2-yl)benzamide] | < 45 |
| Cc1cc(F)c(Nc2nc(-c3ccc4c(c3)N([C@H]3C[C@@H](N5CCCCC5)C3)C(=O)C43CCN(C(=O)C4CN(C5CCN(c6ccc7c(c6)C(=O)N(C6CCC(=O)NC6=O)C7=O)CC5)C4)CC3)cc3ncn(C(C)C)c23)cc1C(=O)NC(C)C (stereo partly shown) [Example 24, 5-[(6-{1′-[1-(1-{2-[2,6-dioxopiperidin-3-yl]-1,3-dioxo-2,3-dihydro-1H-isoindol-5-yl}piperidin-4-yl)azetidine-3-carbonyl]-2-oxo-1-[(1s,3s)-3-(piperidin-1-yl)cyclobutyl]-1,2-dihydrospiro[indole-3,4′-piperidin]-6-yl}-3-(propan-2-yl)-3H-imidazo[4,5-c]pyridin-4-yl)amino]-4-fluoro-2-methyl-N-(propan-2-yl)benzamide] | < 45 |
